The values below come from publication PMC12012479, “Structural and functional characterization of the brain-specific dynamin superfamily member RNF112” (Proceedings of the National Academy of Sciences of the …, 2025).

For test [1], the target named is T1, RNF112T (xlRNF112T) (Xenopus laevis, UniProt Q2VPQ0).
T1 construct: gene rnf112.2.L; GTPase domain + three-helix middle domain; His6-SUMO tag cut by ULP1; E. coli; monomer, dimer with GDP-AlF4-
T1 sequence (Q2VPQ0 120-541 limits assumed): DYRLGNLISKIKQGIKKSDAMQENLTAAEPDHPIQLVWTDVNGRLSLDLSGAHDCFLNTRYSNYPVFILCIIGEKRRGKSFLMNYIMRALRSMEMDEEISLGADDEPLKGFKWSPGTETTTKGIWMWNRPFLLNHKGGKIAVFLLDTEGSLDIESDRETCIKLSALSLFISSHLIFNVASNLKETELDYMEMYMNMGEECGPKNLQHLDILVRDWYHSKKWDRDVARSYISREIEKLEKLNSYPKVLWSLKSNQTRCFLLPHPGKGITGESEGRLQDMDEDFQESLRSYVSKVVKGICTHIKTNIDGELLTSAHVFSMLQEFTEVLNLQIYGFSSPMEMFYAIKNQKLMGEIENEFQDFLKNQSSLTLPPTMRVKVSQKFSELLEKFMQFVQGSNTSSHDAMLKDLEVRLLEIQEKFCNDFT
Put plainly: X-ray crystal structure (form […] from GTPγS, […] Å; form […] by soaking). The test is classed as binding. To be noted: nucleotide pocket of GTPase domain.

Test [2] concerns the target T1, RNF112T (xlRNF112T). Put plainly: ITC. The test is classed as binding. To be noted: 5 mM MgCl2, 150 mM NaCl, pH 7.4, 25 °C. The text has this: ITC on RNF112T (xlRNF112T) | binding GTPγS and GDP with dissociation constants (Kd) in the micromolar range
Test [3] addresses T2, RNF112F (Xenopus laevis, UniProt Q2VPQ0).
T2 construct: gene rnf112.2.L; near-full-length, residues 60 to 541 (RING, GTPase and middle domains); His6-SUMO tag cut by ULP1; E. coli; dimer with GDP-AlF4-
T2 sequence (Q2VPQ0 60-541): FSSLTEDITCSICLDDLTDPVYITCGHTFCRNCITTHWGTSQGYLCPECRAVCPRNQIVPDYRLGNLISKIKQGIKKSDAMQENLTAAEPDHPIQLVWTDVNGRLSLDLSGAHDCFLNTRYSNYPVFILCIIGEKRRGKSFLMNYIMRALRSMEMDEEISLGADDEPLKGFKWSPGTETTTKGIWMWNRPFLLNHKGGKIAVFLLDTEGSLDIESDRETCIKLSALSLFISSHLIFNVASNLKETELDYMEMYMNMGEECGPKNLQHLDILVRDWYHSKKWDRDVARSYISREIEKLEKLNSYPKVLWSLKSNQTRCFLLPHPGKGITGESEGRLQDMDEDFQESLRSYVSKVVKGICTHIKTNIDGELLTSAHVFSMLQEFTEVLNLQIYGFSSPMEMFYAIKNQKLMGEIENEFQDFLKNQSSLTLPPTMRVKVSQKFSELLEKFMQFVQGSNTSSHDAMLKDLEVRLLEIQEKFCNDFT
Put plainly: GTP hydrolysis assay. Particulars: 1 mM GTP, 20 μM protein, 1 mM MnCl2, pH 7.0, 37 °C. The test is classed as biochemical.

Test [4] addresses T3, RNF112F (Xenopus laevis, UniProt Q2VPQ0, T240A, form not given).
T3 construct: gene rnf112.2.L; near-full-length, residues 60 to 541 (RING, GTPase and middle domains); His6-SUMO tag cut by ULP1; E. coli; dimer with GDP-AlF4-
T3 sequence (Q2VPQ0 60-541 T240A): T2 sequence (Q2VPQ0 60-541) with T181A
Put plainly: binding assay in SI Fig. S9. To be noted: GTPase-deficient mutant.

Another test deals with T4, mouse RNF112T (Mus musculus, UniProt Q96DY5).
T4 construct: gene Rnf112; truncated, GTPase domain + middle domain (borders not in main text); E. coli
T4 sequence (Q96DY5 170-563 limits assumed): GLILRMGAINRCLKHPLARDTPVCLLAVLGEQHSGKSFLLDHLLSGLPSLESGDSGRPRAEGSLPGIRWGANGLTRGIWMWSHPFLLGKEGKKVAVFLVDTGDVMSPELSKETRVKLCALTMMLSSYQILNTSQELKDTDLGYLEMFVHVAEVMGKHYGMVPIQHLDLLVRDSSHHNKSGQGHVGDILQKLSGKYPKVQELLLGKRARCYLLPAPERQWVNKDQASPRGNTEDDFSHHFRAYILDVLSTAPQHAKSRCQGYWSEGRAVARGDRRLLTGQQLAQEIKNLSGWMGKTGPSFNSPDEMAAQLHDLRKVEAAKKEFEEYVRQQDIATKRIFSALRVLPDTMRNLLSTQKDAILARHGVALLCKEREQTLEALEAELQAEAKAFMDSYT
Put plainly: GTP hydrolysis assay. The class given is biochemical. To be noted: 1 mM GTP, 20 μM protein, 1 mM MnCl2, pH 7.0, 37 °C.

A further test has as its target T5, human RNF112T (Homo sapiens, UniProt Q9ULX5).
T5 construct: gene RNF112; truncated, GTPase domain + middle domain (borders not in main text); E. coli
T5 sequence (Q9ULX5 150-540 limits assumed): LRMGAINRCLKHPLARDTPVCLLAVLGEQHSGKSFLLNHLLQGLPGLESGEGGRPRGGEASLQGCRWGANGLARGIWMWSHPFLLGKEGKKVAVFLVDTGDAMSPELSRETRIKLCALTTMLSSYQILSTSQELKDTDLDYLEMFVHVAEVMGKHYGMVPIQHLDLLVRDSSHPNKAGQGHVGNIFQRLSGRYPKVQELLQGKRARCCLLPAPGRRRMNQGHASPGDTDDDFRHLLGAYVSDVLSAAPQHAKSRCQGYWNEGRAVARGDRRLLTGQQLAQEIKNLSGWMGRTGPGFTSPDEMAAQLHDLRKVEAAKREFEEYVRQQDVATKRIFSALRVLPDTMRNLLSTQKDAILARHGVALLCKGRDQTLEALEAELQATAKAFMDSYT
Put plainly: GTP hydrolysis assay. The test is classed as biochemical. Particulars: 1 mM GTP, 20 μM protein, 1 mM MnCl2, pH 7.0, 37 °C.

The target of test [5] is near-full-length Xenopus laevis RNF112 containing residues 60 to 541 (RNF112F) (Xenopus laevis). Put plainly: SEC; analytical gel filtration in the presence of GDP•AlF4^−. In general terms: In gel filtration, larger molecules generally elute earlier.

Changes are numbered by the printed parent chain.

Broadly, the Kd is the concentration at which binding is half-saturated. A lower Kd goes with tighter binding. For the compound `Nc1nc2c(ncn2[C@@H]2O[C@H](COP(=O)(O)OP(=O)(O)O)[C@@H](O)[C@H]2O)c(=O)[nH]1` [GDP], the “X-ray crystal structure (form 1 from GTPγS, 2.2 Å; form 2 by soaking)” value on RNF112T (xlRNF112T) [1] was “GDP-bound RNF112T structure derived from a nucleotide-free RNF112T crystal soaked with GDP”. The same compound displayed a Kd on RNF112T (xlRNF112T) [2] of 14.4 ± 2.5 µM.
Turning to `Nc1nc2c(ncn2[C@@H]2O[C@H](COP(=O)(O)OP(=O)(O)OP(=O)(O)O)[C@@H](O)[C@H]2O)c(=O)[nH]1` [GTP], the GTP hydrolysis assay entry at RNF112F [3] was “showed similar GTPase activity as RNF112T”; on mouse RNF112T, “purified human and mouse RNF112T had relatively weak GTPase activity”; at human RNF112T, “purified human and mouse RNF112T had relatively weak GTPase activity”. For the same compound, at RNF112F [4], the “binding assay in SI Fig. S9” value was “GTPase-deficient mutant RNF112F(T240A), which bound GTP but did not dimerize”.
One may read the stoichiometry N as a count of units in the complex or per binding partner. On to “near-full-length Xenopus laevis RNF112 containing residues 60 to 541 (RNF112F) (domain or fragment)”, for which the stoichiometry N in test [5] stood at 2.
